Source: US9175305B2, “Mutant hydroxyphenylpyruvate dioxygenase polypeptides and methods of use” (Syngenta Participations AG, priority 2009, dated 2015)
Several values for one entry are separate records, joined by “and”; a condition that tells them apart may be missing. Equal values may be shown once. Read-outs that look alike come from different tables or passages of the source.

What was measured:
HPPD SEQ ID NO:14 = HPPD SEQ ID NO:14 (Avena sativa, UniProt A0ACD5V6K6, DEL109-109); assay: biochemical; type: binding
HPPD SEQ ID NO:14, sequence (A0ACD5V6K6 entry or part of it DEL109-109): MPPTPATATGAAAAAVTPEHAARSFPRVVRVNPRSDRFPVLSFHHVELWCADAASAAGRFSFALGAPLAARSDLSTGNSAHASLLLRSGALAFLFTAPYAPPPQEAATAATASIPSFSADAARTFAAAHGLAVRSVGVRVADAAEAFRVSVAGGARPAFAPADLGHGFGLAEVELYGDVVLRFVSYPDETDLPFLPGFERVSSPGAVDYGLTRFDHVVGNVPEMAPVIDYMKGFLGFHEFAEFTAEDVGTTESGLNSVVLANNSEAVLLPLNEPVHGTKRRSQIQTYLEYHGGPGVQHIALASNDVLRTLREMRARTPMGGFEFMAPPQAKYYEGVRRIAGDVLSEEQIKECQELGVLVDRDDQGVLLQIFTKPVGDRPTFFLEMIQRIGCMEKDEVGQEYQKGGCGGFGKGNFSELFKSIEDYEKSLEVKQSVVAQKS
Protocol: (§1) On rates (governed by an association rate constant, kon) for the formation of the enzyme: inhibitor complexes, EI and off rates (governed by a dissociation rate constant, koff) were determined by methods known in the art and essentially as described in Hawkes et al. (2001) Proc. Bright. Crop. Prot. Conf. Weeds, 2:563-568 and in PCT Patent App. Pub. No. WO 02/46387).
(§2) For example, on rates were measured by, at zero time, adding ˜60 pmoles HPPD to 50 mM BisTrisPropane buffer at pH7.0 and at 25° C. containing 25 mM Na ascorbate, 4 μg/ml bovine catalase (Sigma, St. Louis, Mo.) and an excess (˜300 pmoles) of ^14C inhibitor in a total assay volume of 425 μl and, at various time points (0-180 s), quenching the radiolabel binding reaction by addition and rapid mixing of 100 μl ‘cold’ 1 mM structure A. Protein samples quenched at different times were then exchanged into 50 mM BisTrisPropane buffer at pH 7.0 containing 0.1M KCl by rapid chromatography down a NAP5 G25 Sephadex column (GE Healthcare Ltd, Buckinghamshire UK) and the amount of ^14C bound to protein fractions quantified in Optiphase scintillant using a Tri-Carb 2900TR scintillation counter (Perkin Elmer, Wellesley, Mass.). The data were fit according to the scheme below in order to derive the value of the apparent second order rate constant, k2, governing the association rate of enzyme and radiolabelled inhibitor. A range of enzyme and inhibitor concentrations were used. […] Further example methods are described in PCT Patent App. Pub. No. WO 02/46387.
(§3) Off rates (k1 in the scheme below) were derived from exchange rate studies where either the test inhibitor, I, or its exchange partner, J were radiolabelled and the data fit according to the scheme below. As noted in Hawkes et al. (2001) Proc. Bright. Crop. Prot. Conf.
(§4) After 30 minutes the exchange reaction was initiated with addition of 100 μl 1 mM ‘cold’ structure A with thorough mixing, and, immediately, 150 μl were withdrawn and loaded onto a NAP5 column, the protein exchanged into 50 mM BisTrisPropane buffer at pH 7.0 containing 0.1M KCl by rapid (<2 min) chromatography down a NAP5 G25 Sephadex column (GE Healthcare Ltd, Buckinghamshire UK) and the amount of ^14C bound to protein measured by Optiphase scintillant using a Tri-Carb 2900TR scintillation counter (Perkin Elmer, Wellesley, Mass.). Further aliquots were removed and measured in the same way at various times over minutes or hours as required in order to determine the exchange kinetics.
(§5) After 30 minutes the reaction vessel was transferred to ice. After a further 10 minutes at ice temperature the exchange reaction was initiated by addition of 100 μl 1 mM Structure A, with thorough mixing, and 150 μl was withdrawn and loaded onto a NAP5 column in a cold room at ˜5-8° C. in order to quantify the amount of radiolabel remaining bound to the protein at various time from the start of exchange at ice temperature.
(§6) Off rates (k1) of HPPD inhibitors that are not available radiolabelled or that present other measurement problems (for example high levels of background non-specific protein-binding which can be measured as radiolabel binding that persists in the presence of high concentrations of ‘cold’ inhibitor) may be measured indirectly. […] Exemplary methods are also described in PCT Patent App. Pub. No. WO 02/46387.

HPPD SEQ ID NO:15 = HPPD SEQ ID NO:15 (Avena sativa, UniProt A0ACD5V6K6, DEL109-109/Q298A); assay: biochemical; type: binding
HPPD SEQ ID NO:15, sequence (A0ACD5V6K6 entry or part of it DEL109-109/Q298A): as the sequence (A0ACD5V6K6 entry or part of it DEL109-109) above, with Q297A counted along it
Protocol: as §1, §2, §3, §4, §5, §6

HPPD SEQ ID NO:16 = HPPD SEQ ID NO:16 (Avena sativa, UniProt A0ACD5V6K6, DEL109-109/Q298G); assay: biochemical; type: binding
HPPD SEQ ID NO:16, sequence (A0ACD5V6K6 entry or part of it DEL109-109/Q298G): as the sequence (A0ACD5V6K6 entry or part of it DEL109-109) above, with Q297G counted along it
Protocol: as §1, §2, §3, §4, §5, §6

HPPD SEQ ID NO:17 = HPPD SEQ ID NO:17 (Avena sativa, UniProt A0ACD5V6K6, DEL109-109/Q298S); assay: biochemical; type: binding
HPPD SEQ ID NO:17, sequence (A0ACD5V6K6 entry or part of it DEL109-109/Q298S): as the sequence (A0ACD5V6K6 entry or part of it DEL109-109) above, with Q297S counted along it
Protocol: as §1, §2, §3, §4, §5, §6

HPPD SEQ ID NO:19 = HPPD SEQ ID NO:19 (Avena sativa, UniProt A0ACD5V6K6, DEL109-109/I285A); assay: biochemical; type: binding
HPPD SEQ ID NO:19, sequence (A0ACD5V6K6 entry or part of it DEL109-109/I285A): as the sequence (A0ACD5V6K6 entry or part of it DEL109-109) above, with I284A counted along it
Protocol: as §1, §2, §3, §4, §5, §6

HPPD SEQ ID NO:20 = HPPD SEQ ID NO:20 (Avena sativa, UniProt A0ACD5V6K6, DEL109-109/I285S); assay: biochemical; type: binding
HPPD SEQ ID NO:20, sequence (A0ACD5V6K6 entry or part of it DEL109-109/I285S): as the sequence (A0ACD5V6K6 entry or part of it DEL109-109) above, with I284S counted along it
Protocol: as §1, §2, §3, §4, §5, §6

HPPD SEQ ID NO:21 = HPPD SEQ ID NO:21 (Avena sativa, UniProt A0ACD5V6K6, DEL109-109/I285V); assay: biochemical; type: binding
HPPD SEQ ID NO:21, sequence (A0ACD5V6K6 entry or part of it DEL109-109/I285V): as the sequence (A0ACD5V6K6 entry or part of it DEL109-109) above, with I284V counted along it
Protocol: as §1, §2, §3, §4, §5, §6

HPPD SEQ ID NO:22 = HPPD SEQ ID NO:22 (Avena sativa, UniProt A0ACD5V6K6, DEL109-109/L256M); assay: biochemical; type: binding
HPPD SEQ ID NO:22, sequence (A0ACD5V6K6 entry or part of it DEL109-109/L256M): as the sequence (A0ACD5V6K6 entry or part of it DEL109-109) above, with L255M counted along it
Protocol: as §1, §2, §3, §4, §5, §6

HPPD SEQ ID NO:23 = HPPD SEQ ID NO:23 (Avena sativa, UniProt A0ACD5V6K6, A242W/DEL109-109); assay: biochemical; type: binding; conditions: read-out: kon (k2)
HPPD SEQ ID NO:23, sequence (A0ACD5V6K6 entry or part of it DEL109-109/A242W): as the sequence (A0ACD5V6K6 entry or part of it DEL109-109) above, with A241W counted along it
Protocol: as §1, §2, §3, §4, §5, §6

HPPD SEQ ID NO:25 = HPPD SEQ ID NO:25 (Avena sativa, UniProt A0ACD5V6K6, DEL109-109/L359A); assay: biochemical; type: binding
HPPD SEQ ID NO:25, sequence (A0ACD5V6K6 entry or part of it DEL109-109/L359A): as the sequence (A0ACD5V6K6 entry or part of it DEL109-109) above, with L358A counted along it
Protocol: as §1, §2, §3, §4, §5, §6

[1] = system: G408A mutant of HPPD SEQ ID NO:14; assay: time course of inhibition of enzyme activity; type: biochemical, Avena sativa; conditions: inhibitor at 0.15 or 0.6 μM

SMILES: COCCOCc1nc(C(F)(F)F)ccc1C(=O)C1C(=O)C2CCC(C2)C1=O (centres unmarked) [Structure C]
- On rate, activity-based method (HPPD SEQ ID NO:14; 25° C., enzyme activity-based method): 7800 M⁻¹ s⁻¹ and 7600 M⁻¹ s⁻¹ and 7200 M⁻¹ s⁻¹ and 10000 M⁻¹ s⁻¹
- kon (HPPD SEQ ID NO:14; 25° C., enzyme activity-based method, read-out: On rate, activity-based method): 7500 M⁻¹ s⁻¹
- Kd/Km ratio (HPPD SEQ ID NO:14; HPPD SEQ ID NO:14): 0.0017
- Kd (HPPD SEQ ID NO:14; Kd, estimated from on and off rates, 25° C.): 9.4 nM
- koff (HPPD SEQ ID NO:14; read-out: koff (k1)): 7.04e-05 s⁻¹
- kon (HPPD SEQ ID NO:14; read-out: kon (k2)): 7500 M⁻¹ s⁻¹
- Kd (HPPD SEQ ID NO:15): 17.7 nM
- koff (HPPD SEQ ID NO:15; read-out: koff (k1)): 0.000113 s⁻¹
- kon (HPPD SEQ ID NO:15; read-out: kon (k2)): 7500 M⁻¹ s⁻¹
- Kd (HPPD SEQ ID NO:16): 26.7 nM
- koff (HPPD SEQ ID NO:16; read-out: koff (k1)): 0.00012 s⁻¹
- kon (HPPD SEQ ID NO:16; read-out: kon (k2)): 4500 M⁻¹ s⁻¹
- Kd (HPPD SEQ ID NO:17): 7.1 nM
- koff (HPPD SEQ ID NO:17; read-out: koff (k1)): 6.65e-05 s⁻¹
- kon (HPPD SEQ ID NO:17; read-out: kon (k2)): 9400 M⁻¹ s⁻¹
- Kd (HPPD SEQ ID NO:19): 8.9 nM
- koff (HPPD SEQ ID NO:19; read-out: koff (k1)): 6.6e-05 s⁻¹
- kon (HPPD SEQ ID NO:19; read-out: kon (k2)): 7500 M⁻¹ s⁻¹
- Kd (HPPD SEQ ID NO:20): 6.6 nM
- koff (HPPD SEQ ID NO:20; read-out: koff (k1)): 6.6e-05 s⁻¹
- kon (HPPD SEQ ID NO:20; read-out: kon (k2)): 10100 M⁻¹ s⁻¹
- Kd (HPPD SEQ ID NO:21): 11.9 nM
- koff (HPPD SEQ ID NO:21; read-out: koff (k1)): 9e-05 s⁻¹
- kon (HPPD SEQ ID NO:21; read-out: kon (k2)): 7500 M⁻¹ s⁻¹
- Kd (HPPD SEQ ID NO:22): 23.9 nM
- koff (HPPD SEQ ID NO:22; read-out: koff (k1)): 9e-05 s⁻¹
- kon (HPPD SEQ ID NO:22; read-out: kon (k2)): 4400 M⁻¹ s⁻¹
- kon (HPPD SEQ ID NO:23): 7500 M⁻¹ s⁻¹
- Kd (HPPD SEQ ID NO:25): 23 nM
- koff (HPPD SEQ ID NO:25; read-out: koff (k1)): 0.000113 s⁻¹
- kon (HPPD SEQ ID NO:25; read-out: kon (k2)): 4800 M⁻¹ s⁻¹
- extent of inhibition compared with the control enzyme [1]: to a lesser extent
